Where two headings read alike, the source gives them in different places.
How the values were obtained:
HaVg1 gene expression = settings: hepatopancreas explant, cited from earlier work
[1] = tested on: expression of vitellogenin; settings: red crab; cited from earlier work
gonad maturation = test: Example 2: FA injection into female shrimp, gonadosomatic index; assay type: in vivo; settings: FA 1 μg/g of body weight, day 6
Procedure: Farnesoic acid (FA) is known to be able to stimulate vitellogenin synthesis in crab, shrimp and lobster. Stock of FA is prepared in ultra-pure mineral oil and female shrimp will be injected with FA.
Fifty female shrimp are injected with FA through the arthropodial membrane (e.g. at 1 μg/g of body weight) 1 day after they molt. After injection, the shrimp is returned to the culture tank for culture. A group of 10 shrimps are randomly selected at a 24-hour interval. 50 μl of hemolymph sample will be taken from the shrimps for analyzing the vitellogenin level by ELISA. On day 6, all the shrimps will be sacrificed and their ovary will be weighted for estimating the gonadosomatic index (GSI), which is the ratio of ovary weight to total body weight. A control group is also setup in which the shrimps are injected with the same volume of mineral oil without any FA. Shrimps injected with FA should have a higher ovary weight to total shrimp weight than the control.

SMILES | increase in HaVg1 gene expression (HaVg1 gene expression; 0.7 μM 20E) | expression of vitellogenin [1] | ovary weight to total shrimp weight (GSI) versus control (gonad maturation) | increase in HaVg1 gene expression (HaVg1 gene expression; 4.2 μM FA)
CC(C)(O)CC[C@@H](O)[C@](C)(O)[C@H]1CC[C@@]2(O)C3=CC(=O)[C@@H]4C[C@@H](O)[C@@H](O)C[C@]4(C)[C@H]3CC[C@]12C [20E, 20-hydroxyecdysone] | 2.2 fold |  |  | 
CC(C)=CCCC(C)=CCCC(C)=CC(=O)O [FA, farnesoic acid] |  | stimulate | higher | 2 fold

Reference: patent US20160346356A1, “USE OF RNA INTERFERENCE, FARNESOIC ACID AND RECOMBINANT PROTEIN APPROACH TO INDUCE GONAD MATURATION IN CRUSTACEAN SPECIES” (priority 2013, published 2016)
